Assay results taken from the supplement of paper PMC10307832.

Tests used:
Test in all cases: relative viability (nuclei count vs DMSO), 5 days (fraction); higher = more cells survive
Palbociclib + Crizotinib = compound: CC(=O)c1c(C)c2cnc(Nc3ccc(N4CCNCC4)cn3)nc2n(C2CCCC2)c1=O [Palbociclib] + C[C@@H](Oc1cc(-c2cnn(C3CCNCC3)c2)cnc1N)c1c(Cl)ccc(F)c1Cl [Crizotinib] (partner 1 µM)
Summary of the method: (§1)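 After 5 days of treatment, lung cancer cells in 1536-well plates were fixed and stained in a single step (final 0.05% Triton X-100, 1% formaldehyde, 1 ug/ml Hoechst) and their nuclei counted on 4× images. Treatment had been applied by pin tool the day after seeding as one drug alone or as a fixed anchor-drug dose with five library-drug doses (not always all listed) in √10 steps. Relative viability is the nuclei count of treated wells divided by that of vehicle wells, and values are medians of duplicate plates.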

Palbociclib + Vorinostat = compound: CC(=O)c1c(C)c2cnc(Nc3ccc(N4CCNCC4)cn3)nc2n(C2CCCC2)c1=O [Palbociclib] + O=C(CCCCCCC(=O)Nc1ccccc1)NO [Vorinostat] (partner 1 µM)
Summary of the method: as §1

Palbociclib + Trametinib = compound: CC(=O)c1c(C)c2cnc(Nc3ccc(N4CCNCC4)cn3)nc2n(C2CCCC2)c1=O [Palbociclib] + CC(=O)Nc1cccc(-n2c(=O)n(C3CC3)c(=O)c3c(Nc4ccc(I)cc4F)n(C)c(=O)c(C)c32)c1 [Trametinib] (partner 0.02 µM)
Summary of the method: as §1

Palbociclib + Decitabine = compound: CC(=O)c1c(C)c2cnc(Nc3ccc(N4CCNCC4)cn3)nc2n(C2CCCC2)c1=O [Palbociclib] + Nc1ncn([C@H]2C[C@H](O)[C@@H](CO)O2)c(=O)n1 [Decitabine] (partner 2 µM)
Summary of the method: as §1

Cell Line | relative viability (Palbociclib + Crizotinib; first compound 0.01 µM) | relative viability (Palbociclib + Crizotinib; first compound 0.03162 µM) | relative viability (Palbociclib + Crizotinib; first compound 0.1 µM) | relative viability (Palbociclib + Crizotinib; first compound 0.3162 µM) | relative viability (Palbociclib + Crizotinib; first compound 1 µM) | relative viability (Palbociclib + Vorinostat; first compound 0.01 µM) | relative viability (Palbociclib + Vorinostat; first compound 0.03162 µM) | relative viability (Palbociclib + Vorinostat; first compound 0.1 µM) | relative viability (Palbociclib + Vorinostat; first compound 0.3162 µM) | relative viability (Palbociclib + Vorinostat; first compound 1 µM) | relative viability (Palbociclib + Trametinib; first compound 0.01 µM) | relative viability (Palbociclib + Trametinib; first compound 0.03162 µM) | relative viability (Palbociclib + Trametinib; first compound 0.1 µM) | relative viability (Palbociclib + Trametinib; first compound 0.3162 µM) | relative viability (Palbociclib + Trametinib; first compound 1 µM) | relative viability (Palbociclib + Decitabine; first compound 0.01 µM) | relative viability (Palbociclib + Decitabine; first compound 0.03162 µM) | relative viability (Palbociclib + Decitabine; first compound 0.1 µM) | relative viability (Palbociclib + Decitabine; first compound 0.3162 µM) | relative viability (Palbociclib + Decitabine; first compound 1 µM)
NCI-H3122 | 0.246 | 0.244 | 0.252 | 0.188 | 0.175 | 0.931 | 0.632 | 0.879 | 0.703 | 0.613 | 0.212 | 0.207 | 0.232 | 0.192 | 0.158 | 0.394 | 0.423 | 0.347 | 0.33 | 0.277
NCI-H23 | 0.613 | – | 0.436 | 0.458 | 0.428 | 0.617 | 0.531 | 0.406 | 0.509 | 0.411 | 0.447 | 0.295 | 0.42 | 0.39 | 0.289 | 0.28 | 0.341 | 0.283 | 0.362 | 0.33
A-427 | 0.963 | 0.83 | 0.668 | 0.728 | 0.614 | 0.855 | 0.789 | 0.711 | 0.652 | 0.527 | 0.846 | 0.703 | 0.628 | 0.613 | 0.587 | 0.6 | 0.581 | 0.489 | 0.539 | 0.519
LOU-NH91 | 0.745 | 0.676 | 0.584 | 0.592 | 0.505 | 1.02 | 0.623 | 0.695 | 0.675 | 0.673 | 0.798 | 0.662 | 0.581 | 0.612 | 0.62 | 0.817 | 0.732 | 0.693 | 0.631 | 0.61
NCI-H2023 | 0.568 | 0.58 | 0.49 | 0.367 | 0.272 | 0.721 | 0.281 | 0.54 | 0.515 | 0.303 | 0.655 | 0.408 | 0.477 | 0.464 | 0.326 | 0.225 | 0.189 | 0.254 | 0.272 | 0.251
